According to patent publication US10301320B2, “Compositions and methods of modulating 15-PGDH activity” (CASE WESTERN RESERVE UNIVERSITY, priority 2012, dated 2019):
Entries after “also recorded” stand apart in the source; their conditions may differ. Read-outs that look alike come from different tables or passages of the source. Blank lines part the entries; values can stand above or below the compound they belong to.

What was measured:
[1] = tested on: V9m reporter cell line expressing a 15-PGDH luciferase fusion construct; assay: 15-PGDH-luciferase fusion gene reporter induction, V9m cell line; type: cell-based; conditions: […]; for percent reporter induction over basal at […]: read-out: V9M-SC3 Reporter activity % ([…]), Table 18, read-out: V9M-SC3 Reporter activity % (7.5 μM); for activation at […]: read-out: V9M-SC3 Reporter activity ([…]) (%), Table 18, read-out: V9M-SC3 Reporter activity (2.5 μM) (%); for V9M reporter activity ([…]): % increased luciferase activity over basal level
Description: (§1) These cell lines are Vaco-9m (V9m), LS174T, Vaco503 (V503). […] Value of 1.0 on the Y-axis is the basal level of reporter activity in cells treated with drug free DMSO vehicle.
(§2) This Example provides data on a group of structural analogues of SW033291. Data provided includes level of induction of a 15-PGDH-luciferase fusion gene reporter, recorded as % increased luciferase activity over basal level, in three colon cancer cell lines, V9m, V503, and LS174T, engineered to contain the reporter, and treated with either 2.5 uM or 7.5 uM compound (i.e., Values are recorded on a scale where 100 indicates of doubling of luciferase activity over baseline level).
(§3) FIGS. 27(A-C) show graphs that show the level of compound's activity in inducing the 15-PGDH-luciferase fusion reporter in three different test cell line backgrounds, V9m, LS174T, and V503. Each compound was tested at two concentrations, 2.5 uM, and 7.5 uM. Y-axis is luciferase activity.
(§4) Data provided include level of induction of a 15-PGDH-luciferase fusion gene reporter, recorded as % induction of luciferase activity over basal level, in three colon cancer cell lines, V9m, V503, and LS174T, engineered to contain the reporter, and treated with either 2.5 uM or 7.5 uM compound. […] Additionally, for selected compounds is recorded the decrease in PGE2 levels in the media of compound treated A549 cells that have been stimulated with IL-1 beta. Additionally recorded for selected compounds is the effect on A549 cell viability as measured by a CellTiter-Glo assay, and the effect of compounds on A549 cell colony formation.

[2] = tested on: LS174T reporter cell line expressing a 15-PGDH luciferase fusion construct; assay: 15-PGDH-luciferase fusion gene reporter induction, LS174T cell line; type: cell-based; conditions: Homo sapiens
Description: as §1, §2, §3, §4

[3] = tested on: Vaco503 reporter cell line expressing a 15-PGDH luciferase fusion construct; assay: 15-PGDH-luciferase fusion gene reporter induction, Vaco503 (V503) cell line; type: cell-based; conditions: read-out: V503-3H9-7 reporter activity, % ([…]), Table 18, […]
Description: as §1, §2, §3, §4

[4] = biological target: T1, recombinant 15-PGDH protein (Homo sapiens (Human), UniProt P15428); assay: Inhibition of enzymatic activity of recombinant 15-PGDH in vitro; type: biochemical;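 note: activity of recombinant human 15-PGDH assayed in vitro using PGE2 as the substrate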
T1 sequence (P15428 whole entry): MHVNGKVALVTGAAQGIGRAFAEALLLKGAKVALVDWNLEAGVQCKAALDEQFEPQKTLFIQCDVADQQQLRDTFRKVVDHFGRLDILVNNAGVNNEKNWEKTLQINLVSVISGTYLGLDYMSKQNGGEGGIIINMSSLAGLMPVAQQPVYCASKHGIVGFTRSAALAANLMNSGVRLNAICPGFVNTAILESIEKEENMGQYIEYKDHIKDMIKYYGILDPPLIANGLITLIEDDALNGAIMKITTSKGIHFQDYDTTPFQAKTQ

[5] = tested on: wild-type mouse bone marrow; assay: Hematopoietic colonies from bone marrow treated ex vivo; type: cell-based; conditions: 1 uM, ex vivo on ice for 2 hours; compared with SW033291
Description: Treated marrow is again then plated into methylcellulose for counting of hematopoietic colonies.

[6] = tested on: 15-PGDH-luciferase fusion reporter in V9m, LS174T and V503 cell lines; assay: 15-PGDH-luciferase fusion gene reporter induction in three colon cancer cell lines (stated jointly); type: cell-based
[7] = biological target: T1, recombinant 15-PGDH protein; assay: Melting temperature shift of recombinant 15-PGDH (SYPRO Orange); type: binding
[8] = tested on: 15-PGDH mRNA in colon cancer cell lines; assay: 15-PGDH mRNA levels by real-time PCR; type: cell-based; conditions: treated colon cancer cell lines, real-time PCR
Description: In these studies parental cell lines (not containing the 15-PGDH-luciferase reporter) are employed.

A549 cells [9] = assay: PGE2 levels in medium of IL1-beta stimulated A549 cells; type: cell-based; conditions: for Effect on PGE2 levels in medium, in words: IL1-beta stimulated A549 cells; for PGE2 levels achieved: IL-1β 16 h, compound 8 h, highest level of titration; for Reduction in levels of PGE2 in the medium, ranking: 15-PGDH activators
A549 cells [10] = assay: Cellular toxicity on A549 cells (CellTiter-Glo, cell numbers); type: cell-based
Experimental: Time to inhibition refers to the time needed to inhibit the generation of NADH by 15-PGDH from the moment with drug is added into the reaction mix. Delta™ refers to the shift in melting temperature of recombinant 15-PGDH in the presence of drug (with cofactor NADH also present). Concentration of Full Cell Line Reporter Induction refers to the concentration of drug that needs to be added to reporter cell line to achieve maximal induction of the 15-PGDH-luciferase gene fusion reporter cassette, as measured by luciferase assays. Hepatocyte stability refers to the half-life of compound in the presence of hepatocytes in culture. Toxicity refers to the concentration of compound needed to decrease cell numbers in a cell culture assay.
FIGS. 38(A-C) show assays of cellular toxicity on A549 cells at 24 hours of 15-PGDH inhibitors as assayed by CellTiter-Glo measurement.
FIGS. 84(A-C) show at left (84A) activity in lowering PGE2 levels in media of A549 cells that are stimulated to produce PGE2 by treatment with IL1-beta.

[11] = read-out: Ls174T-SC1 reporter activity, % ([…]), Table 18, […], read-out: Ls174T-SC1 reporter activity, % (2.5μM)
[12] = read-out: Ls174T-SC1 reporter activity, % ([…]), Table 18, […], read-out: Ls174T-SC1 reporter activity, % (7.5 μM)
[13] = read-out: V503-3H9-7 reporter activity, % (2.5 μM)
[14] = read-out: V503-3H9-7 reporter activity, % (7.5 μM)
[15] = read-out: Enzyme inhibition % ([…]), Table 18, […] compound, read-out: Enzyme inhibition % (2.5 μM)
[16] = read-out: Enzyme inhibition % ([…]), Table 18, […] compound, read-out: Enzyme inhibition % (7.5 μM)
[17] = read-out: Enzyme inhibition % ([…]), recombinant 15-PGDH, […] compound, read-out: Enzyme inhibition % (2.5 μM)
[18] = read-out: Enzyme inhibition % ([…]), recombinant 15-PGDH, […] compound, read-out: Enzyme inhibition % (7.5 μM)

inhibition at […] [4, 15]: 42%
inhibition at […] [4, 16]: 70.2%
SMILES: COc1ccc(C)cc1N(CC(=O)Nc1cccnc1)S(=O)(=O)c1ccccc1 [526206-05-3]
percent reporter induction over basal at […] [1]: 114%
activation at […] [1]: 23.1%
activation at […] [2, 11]: 68.5%
activation at […] [2, 12]: 146%
activation at […] [3, 13]: 110%
activation at […] [3, 14]: 198%

inhibition at […] [4, 15]: 6.23%
inhibition at […] [4, 16]: 17.2%
SMILES: COc1ccc(N(CC(=O)Nc2cccnc2)S(=O)(=O)c2ccccc2)cc1C [592469-85-7]
percent reporter induction over basal at […] [1]: 18.5%
activation at […] [1]: -9.74%
activation at […] [2, 11]: 3.77%
activation at […] [2, 12]: 14%
activation at […] [3, 13]: 10.2%
activation at […] [3, 14]: 5.3%

SMILES: CCCCC[C@H](O)/C=C/[C@H]1[C@H](O)CC(=O)[C@@H]1C/C=C\CCCC(=O)O [PGE2, prostaglandin E2]
Increase in bone marrow derived colonies, in words [5]: lesser increase

IC50 fold higher than that of SW033291 ([4]; FIG. 12): 10,000 fold
inhibition at […] [4, 17]: 20.2%
inhibition at […] [4, 18]: 58.2%
Direct binding to recombinant 15-PGDH ([7]; melting temperature shift): cannot be demonstrated to bind 15-PGDH
SMILES: COc1ccc(OC)c(N(CC(=O)Nc2cccnc2)S(=O)(=O)c2ccccc2)c1 [SW054384]
Induction of 15-PGDH-luciferase reporter, in words [6]: increase luciferase activity
15-PGDH mRNA levels [8]: do not in general alter 15-PGDH mRNA levels
Effect on PGE2 levels in medium, in words (A549 cells [9]): lower level of PGE2 produced; also recorded: show activity in lowering PGE2

SMILES: O=C(c1ccc2nc(-c3ccccc3)c(-c3ccccc3)nc2c1)N1CCCCC1 [SW145753]
Induction of 15-PGDH-luciferase reporter, in words [6]: increase luciferase activity
15-PGDH mRNA levels [8]: do not in general alter 15-PGDH mRNA levels
Effect on PGE2 levels in medium, in words (A549 cells [9]): clear inhibition of 15-PGDH activity

inhibition at […] [4, 17]: 24.3%
inhibition at […] [4, 18]: 63.3%
SMILES: COc1ccc(S(=O)(=O)N(CC(=O)Nc2cccnc2)c2cc(OC)ccc2OC)cc1 [SW202940]
Induction of 15-PGDH-luciferase reporter, in words [6]: active in inducing 15-PGDH-luciferase reporter activity

inhibition at […] [4, 17]: 26.5%
inhibition at […] [4, 18]: 58.9%
SMILES: COc1ccc(OC)c(N(CC(=O)Nc2csnc2C)S(=O)(=O)c2ccccc2)c1 [SW203703]
Induction of 15-PGDH-luciferase reporter, in words [6]: active in inducing the 15-PGDH-luciferase reporter
Effect on PGE2 levels in medium, in words (A549 cells [9]): show activity in lowering PGE2

inhibition at […] [4, 17]: 4.19%
inhibition at […] [4, 18]: 7.26%
SMILES: COc1ccc(OC)c(N(CC(=O)Nc2cc(C)no2)S(=O)(=O)c2ccccc2)c1 [SW203704]
Induction of 15-PGDH-luciferase reporter, in words [6]: active in inducing the 15-PGDH-luciferase reporter

inhibition at […] [4, 17]: 1.7%
inhibition at […] [4, 18]: 24.9%
SMILES: COc1ccc(OC)c(N(CC(=O)Nc2cccnc2)S(=O)(=O)c2ccc(F)cc2)c1 [SW203736]
Induction of 15-PGDH-luciferase reporter, in words [6]: active in inducing 15-PGDH-luciferase reporter activity; also recorded: active in inducing the 15-PGDH-luciferase reporter
Inhibition of recombinant 15-PGDH, in words [4]: lesser inhibitory activity at high concentration
Effect on PGE2 levels in medium, in words (A549 cells [9]): show activity in lowering PGE2

inhibition at […] [4, 17]: 23.8%
inhibition at […] [4, 18]: 42.5%
SMILES: COc1ccc(OC)c(N(CC(=O)Nc2cccnc2)S(=O)(=O)c2ccc(Br)cc2)c1 [SW203737]
Induction of 15-PGDH-luciferase reporter, in words [6]: active in inducing 15-PGDH-luciferase reporter activity; also recorded: active in inducing the 15-PGDH-luciferase reporter
Effect on PGE2 levels in medium, in words (A549 cells [9]): show activity in lowering PGE2

SMILES: CCCC[S+]([O-])c1sc2nc(-c3cccs3)ccc2c1N (stereo not shown) [SW206980, 2-(butylsulfinyl)-6-(thiophen-2-yl)thieno[2,3-b]pyridin-3-amine]
V9M reporter activity ([…]) [1]: 92.71%
V9M reporter activity ([…]) ([1]; 100 = doubling): 99.37%
Induction of 15-PGDH-luciferase reporter, in words [6]: highly active compound in reporter induction; also recorded: activity comparable to SW033291
PGE2 levels achieved (A549 cells [9]): 2500 pg/mL

SMILES: CCCC[S+]([O-])c1sc2nc(-c3nccs3)ccc2c1N (stereo not shown) [SW206992, 2-(butylsulfinyl)-6-(thiazol-2-yl)thieno[2,3-b]pyridin-3-amine]
V9M reporter activity ([…]) [1]: 121.75%
V9M reporter activity ([…]) ([1]; 100 = doubling): 86.44%
Concentration for Full Cell Line Reporter Induction ([6]; maximal induction of reporter, printed in uM): >1 µM
Time to inhibition (10 nM) ([4]; time needed to inhibit generation of NADH after drug is added): ~2 min
Melting temperature ([7]; 15-PGDH 10 uM, compound 20 uM, NAD(+) 100 uM, control 49): 59 degrees
PGE2 levels achieved (A549 cells [9]): 2100 pg/mL
Toxicity, CellTiter-Glo (A549 cells [10]; 24 hours, up to 10 uM in FIG. 38): No effect on CellTitre-Glo levels
Toxicity (A549 cells [10]; concentration needed to decrease cell numbers in a cell culture assay): >7.5 µM

inhibition at […] [4, 17]: -7.08%
inhibition at […] [4, 18]: -0.86%
SMILES: COc1ccc(S(=O)(=O)N(CC(=O)N2CCOCC2)c2cc(OC)ccc2OC)cc1 [SW207997]
Induction of 15-PGDH-luciferase reporter, in words [6]: activity equal to, or in some assays greater than, SW054384; also recorded: active in inducing the 15-PGDH-luciferase reporter
Inhibition of recombinant 15-PGDH, in words [4]: much less inhibition of enzymatic activity of 15-PGDH; also recorded: lesser inhibitory activity at high concentration
Reduction in levels of PGE2 in the medium, ranking (A549 cells [9]; 100 nM drug): greatest reduction in levels of PGE2

inhibition at […] [4, 17]: 8.09%
inhibition at […] [4, 18]: 14.4%
SMILES: COc1ccc(S(=O)(=O)N(CC(=O)N2CCCCCC2)c2cc(OC)ccc2OC)cc1 [SW207998]
Induction of 15-PGDH-luciferase reporter, in words [6]: activity equal to, or in some assays greater than, SW054384; also recorded: active in inducing the 15-PGDH-luciferase reporter
Inhibition of recombinant 15-PGDH, in words [4]: much less inhibition of enzymatic activity of 15-PGDH; also recorded: lesser inhibitory activity at high concentration
Reduction in levels of PGE2 in the medium, ranking (A549 cells [9]; 100 nM drug): greatest reduction in levels of PGE2

inhibition at […] [4, 17]: -0.86%
inhibition at […] [4, 18]: 3.34%
SMILES: COc1ccc(S(=O)(=O)N(CC(=O)N2CCCCC2)c2cc(OC)ccc2OC)cc1 [SW207999]
Induction of 15-PGDH-luciferase reporter, in words [6]: active in inducing the 15-PGDH-luciferase reporter
Inhibition of recombinant 15-PGDH, in words [4]: lesser inhibitory activity at high concentration

SMILES: CCCC[S+]([O-])c1sc2nc(-c3nccs3)cc(-c3ccccc3)c2c1N (stereo not shown) [SW208066, 2-(butylsulfinyl)-4-phenyl-6-(thiazol-2-yl)thieno[2,3-b]pyridin-3-amine]
V9M reporter activity ([…]) [1]: 111.63%
V9M reporter activity ([…]) ([1]; 100 = doubling): 122.72%
PGE2 levels in the medium, ranking (A549 cells [9]; 100 nM drug, 15-PGDH inhibitors): highest levels of PGE2

SMILES: C[S+]([O-])c1sc2nc(-c3cccs3)cc(-c3ccccc3)c2c1N (stereo not shown) [SW208079, 2-(methylsulfinyl)-4-phenyl-6-(thiophen-2-yl)thieno[2,3-b]pyridin-3-amine]
Induction of 15-PGDH-luciferase reporter, in words [6]: marked loss of activity in inducing the cell line reporters
